Molecules are shown by their SMILES.

What is called inhibition is the drop in the measured response relative to a control, in per cent.

The nature of assay [1]: Antiproliferative activity against VEGF-stimulated HUVEC cells assessed as reduction in cell viability at 0.5 nM preincubated for 1 hr followed by addition of VEGF measured after 72 hrs by MTT assay. The assay is classed as functional. The conditions noted are these: Homo sapiens. Background: Tetrazolium dyes change colour on reduction, which living cells bring about.
A short description of assay [2]: Antiproliferative activity against VEGF-stimulated HUVEC cells assessed as reduction in cell viability at 2 nM preincubated for 1 hr followed by addition of VEGF measured after 72 hrs by MTT assay. The assay is classed as functional. The conditions noted are these: Homo sapiens.

`O=C(NC1CCCC1)c1ccccc1Nc1ccc2c(/C=C/c3ccccn3)n[nH]c2c1`: the inhibition at 0.0005 µM in assay [1] was 43%. Besides, in assay [2], the inhibition at 0.002 µM came to 96%.

In the case of `CN(C)CCCCNC(=O)c1ccccc1Nc1ccc2c(/C=C/c3ccccn3)n[nH]c2c1`, the inhibition at 0.0005 µM in assay [1] stood at 23%. Besides, the inhibition at 0.002 µM in assay [2] amounted to 16%.

`NC(=O)NNC(=O)c1ccccc1Nc1ccc2c(/C=C/c3ccccn3)n[nH]c2c1`: in assay [1], the inhibition at 0.0005 µM came out at 19%. Further, the inhibition at 0.002 µM in assay [2] is 5%.

With `O=C(NC1CC1)c1ccccc1Nc1ccc2c(/C=C/c3ccccn3)n[nH]c2c1`, the inhibition at 0.0005 µM in assay [1] was determined as 59%. For the same compound, in assay [2], the inhibition at 0.002 µM was 97%.

For `Nc1ccc(CNC(=O)c2ccccc2Nc2ccc3c(/C=C/c4ccccn4)n[nH]c3c2)cc1`, the inhibition at 0.0005 µM in assay [1] is 45%. Besides, in assay [2], the inhibition at 0.002 µM is 88%.

With `Cc1csc(NC(=O)c2ccccc2Nc2ccc3c(/C=C/c4ccccn4)n[nH]c3c2)n1`, the inhibition at 0.0005 µM in assay [1] stood at 15%. For the same compound, the inhibition at 0.002 µM in assay [2] was 95%.

On to `O=C(NCCc1cccnc1)c1ccccc1Nc1ccc2c(/C=C/c3ccccn3)n[nH]c2c1`, for which the inhibition at 0.0005 µM in assay [1] was 23%. Besides, the inhibition at 0.002 µM in assay [2] was determined as 61%.

Consider `CCCCCC(C)NC(=O)c1ccccc1Nc1ccc2c(/C=C/c3ccccn3)n[nH]c2c1` (stereo unspecified), for which, in assay [1], the inhibition at 0.0005 µM was -1%. The inhibition at 0.002 µM in assay [2] is 14%.

Consider `CC(C)N(CCNC(=O)c1ccccc1Nc1ccc2c(/C=C/c3ccccn3)n[nH]c2c1)C(C)C`, for which, in assay [1], the inhibition at 0.0005 µM came to 37%. Moreover, the inhibition at 0.002 µM in assay [2] turned out to be 15%.

On to `O=C(NN1CCN(CCO)CC1)c1ccccc1Nc1ccc2c(/C=C/c3ccccn3)n[nH]c2c1`, for which, in assay [1], the inhibition at 0.0005 µM was determined as 25%. In assay [2], the inhibition at 0.002 µM turned out to be 25%.

`CCCCCCNC(=O)c1ccccc1Nc1ccc2c(/C=C/c3ccccn3)n[nH]c2c1`: the inhibition at 0.0005 µM in assay [1] was determined as 21%. The inhibition at 0.002 µM in assay [2] is 90%.

For the compound `Cc1cc(NNC(=O)c2ccccc2Nc2ccc3c(/C=C/c4ccccn4)n[nH]c3c2)nc(C)n1`, the inhibition at 0.0005 µM in assay [1] amounted to 32%. The inhibition at 0.002 µM in assay [2] came out at 35%.

Turning to `COCCNC(=O)c1ccccc1Nc1ccc2c(/C=C/c3ccccn3)n[nH]c2c1`, in assay [1], the inhibition at 0.0005 µM came out at 21%. In assay [2], the inhibition at 0.002 µM came to 60%.

As for `O=C(NCC(F)(F)F)c1ccccc1Nc1ccc2c(/C=C/c3ccccn3)n[nH]c2c1`, the inhibition at 0.0005 µM in assay [1] was 34 to 53%. The inhibition at 0.002 µM in assay [2] lay in the range of 61 to 95%.

Take `CNC(=O)c1ccccc1Nc1ccc2c(/C=C/c3ccccn3)n[nH]c2c1`: the inhibition at 0.0005 µM in assay [1] was 8%. In assay [2], the inhibition at 0.002 µM is 21%.

Turning to `Nc1ccc(CCNC(=O)c2ccccc2Nc2ccc3c(/C=C/c4ccccn4)n[nH]c3c2)cc1`, in assay [1], the inhibition at 0.0005 µM stood at 32%. For the same compound, the inhibition at 0.002 µM in assay [2] turned out to be 31%.

In the case of `O=C(NOc1ccccc1)c1ccccc1Nc1ccc2c(/C=C/c3ccccn3)n[nH]c2c1`, in assay [1], the inhibition at 0.0005 µM came out at 27%. Moreover, in assay [2], the inhibition at 0.002 µM came out at 80%.

With `CC(=O)NNC(=O)c1ccccc1Nc1ccc2c(/C=C/c3ccccn3)n[nH]c2c1`, the inhibition at 0.0005 µM in assay [1] came to 4%. For the same compound, the inhibition at 0.002 µM in assay [2] came to 10%.

As for `Cc1ncc(CNC(=O)c2ccccc2Nc2ccc3c(/C=C/c4ccccn4)n[nH]c3c2)c(N)n1`, the inhibition at 0.0005 µM in assay [1] was 16%. In addition, in assay [2], the inhibition at 0.002 µM was found to be 17%.

In the case of `CN1CCCC1CCNC(=O)c1ccccc1Nc1ccc2c(/C=C/c3ccccn3)n[nH]c2c1` (stereo unspecified), the inhibition at 0.0005 µM in assay [1] worked out at 30%. For the same compound, the inhibition at 0.002 µM in assay [2] came to 23%.

In the case of `CCN(CC)CCCCNC(=O)c1ccccc1Nc1ccc2c(/C=C/c3ccccn3)n[nH]c2c1`, the inhibition at 0.0005 µM in assay [1] was found to be 22%. Also, the inhibition at 0.002 µM in assay [2] was found to be 36%.

Consider `O=C(N[C@@H]1CC=CC[C@@H]1CO)c1ccccc1Nc1ccc2c(/C=C/c3ccccn3)n[nH]c2c1`, for which the inhibition at 0.0005 µM in assay [1] is 58%. Also, in assay [2], the inhibition at 0.002 µM turned out to be 37%.

Regarding `CC(NC(=O)c1ccccc1Nc1ccc2c(/C=C/c3ccccn3)n[nH]c2c1)c1ccccc1` (stereo unspecified), the inhibition at 0.0005 µM in assay [1] came out at 30%. The inhibition at 0.002 µM in assay [2] was determined as 94%.

These data come from ChEMBL document CHEMBL3880421, “Indazole compounds and pharmaceutical compositions for inhibiting protein kinases, and methods for their use” (2003).
